Measured values from article PMC10580319, “Quantitative Imaging of the Action of vCPP2319, an Antimicrobial Peptide from a Viral Scaffold, against Staphylococcus aureus Biofilms of a Clinical Isolate” (ACS Infectious Diseases, 2023).
Where no end group is shown, it is not given here.

Assays:
Format in all cases: cell-based, Staphylococcus aureus
[1] = system: S. aureus clinical isolate biofilms; experiment: CLSM assay, SYTO 9 / WGA Alexa Fluor 633, polysaccharide density and mass, biofilm height; settings: fold variation relative to untreated biofilm, 0.13 mg/mL α-amylase, 25 μM vCPP2319, 4 h each
Experimental: (EC 3.2.1.1) on the EPS matrix of S. aureus biofilms was evaluated using a CLSM-based assay. Briefly, the bacterial cells and the matrix components of S. aureus biofilms were imaged using SYTO 9 and Wheat Germ Agglutinin (WGA) Alexa Fluor 633 Conjugate (Invitrogen, Carlsbad, CA, USA). Preformed biofilms (see above) were washed once with PBS and stained with 3 μM SYTO 9 and 5 μg/mL WGA Alexa Fluor 633, for 15 min at room temperature.
SYTO 9 was excited using the Argon laser (488 nm), and both TO-PRO-3 iodide and WGA Alexa Fluor 633 were excited with the Helium–Neon laser (633 nm), respectively. Image acquisition was performed on a Zeiss LSM 710 confocal laser point-scanning inverted microscope (Carl Zeiss MicroImaging, Oberkochen, Germany) equipped with a Plan-Apochromat DIC 63× oil immersion objective (1.40 numerical aperture). For each experiment, three different areas were imaged. All images were analyzed with the image processor Fiji.[54] TO-PRO-3 mean fluorescence intensity over the image was quantified from the xy plane of an inner layer (z = 2 μm, z being the distance from the surface of the glass slide) using Fiji’s incorporated plug-ins.[54] WGA mean fluorescence intensity over the image was quantified from the xy plane of an inner layer (z = 2 μm, z being the distance from the surface of the glass slide) and also from a z-projection of the sum of the z-stack slices, using Fiji’s incorporated plug-ins.[54] Biofilm height was determined from the xz orthogonal images using ZEN lite software (Carl Zeiss MicroImaging).
(§1) The mean emission fluorescence intensity of WGA integrated over a plane xy at a specific depth, z, If,WGA,xy, is proportional to the mass of polysaccharides in that plane.

[2] = system: S. aureus clinical isolate biofilms; experiment: Crystal violet binding assay, biofilm biomass, with global mass and density ratios
Experimental: (§2) The effect of vCPP2319 on 24 h-preformed S. aureus biofilms was evaluated using three distinct methods, as previously described:[24] the metabolic activity and viability of biofilm-embedded cells was determined using a resazurin reduction fluorometric assay and a colony count assay, respectively. The total biofilm biomass was quantified by using a crystal violet assay.
(§3) Crystal violet is a basic dye that binds to negatively charged molecules, such as those in biofilms EPS matrix and on bacterial membrane surface.[51]S. aureus suspensions at 1 × 10^6 CFU/mL were incubated in a 96-well microtiter clear flat-bottomed polystyrene plate (Corning) for 24 h at 37 °C. […] (EC 3.2.1.1), ranging from 0.0078 to 0.5 mg/mL, for 4 h at 37 °C. Untreated biofilms were used as a control. Biofilms were washed twice with MHB and incubated with 0.25% (v/v in sterile Milli-Q water) crystal violet (Sigma-Aldrich) for 30 min at room temperature. After each sample was washed three times with MHB, crystal violet was solubilized with 95% (v/v) ethanol (Carlo Erba Reagents S.A.S., France) by repeated pipetting. Biofilm biomass was quantified by measuring the absorbance at 590 nm of each sample in an infinite M200 microplate reader (Tecan). The percentage of crystal violet staining was determined relative to the control after blank (0.25% (v/v) crystal violet in sterile Milli-Q water) correction.
as §1

[3] = system: S. aureus ATCC 6538 biofilms; experiment: Crystal violet binding assay, biofilm biomass; settings: 24 h-preformed biofilms, treatment for 4 or 24 h
Experimental: as §2, §3

[4] = system: S. aureus clinical isolate biofilm-embedded bacteria; experiment: CLSM live/dead assay, SYTO 9 / TO-PRO-3 iodide, membrane integrity; settings: 25 and 50 μM, 4 h in PBS, inner layer z = 2 μm
Experimental: To visualize the effect of vCPP2319 on membrane integrity of biofilm-embedded bacteria, an adapted live/dead assay using SYTO 9 and TO-PRO-3 iodide (Invitrogen) was performed, as previously described.[24]S. aureus suspensions at 1 × 10^6 CFU/mL were incubated in a sterile μ-Slide 8-well plate (Ibidi) for 24 h at 37 °C. Preformed biofilms were washed once with PBS and incubated with vCPP2319 at 25 or 50 μM, in PBS, for 4 h at 37 °C. Untreated biofilms were used as a control. After a washing step with PBS, biofilms were sequentially stained with 3 μM SYTO 9 for 30 min and 4 μM TO-PRO-3 iodide for 15 min at room temperature.
SYTO 9 was excited using the Argon laser (488 nm), and both TO-PRO-3 iodide and WGA Alexa Fluor 633 were excited with the Helium–Neon laser (633 nm), respectively. […] All images were analyzed with the image processor Fiji.[54] TO-PRO-3 mean fluorescence intensity over the image was quantified from the xy plane of an inner layer (z = 2 μm, z being the distance from the surface of the glass slide) using Fiji’s incorporated plug-ins.[54] WGA mean fluorescence intensity over the image was quantified from the xy plane of an inner layer (z = 2 μm, z being the distance from the surface of the glass slide) and also from a z-projection of the sum of the z-stack slices, using Fiji’s incorporated plug-ins.[54] […]

WRRRYRRWRRRRRWRRRPRR-NH2 [vCPP2319]
ρi/ρcontrol (polysaccharides) eq 4 ([1]; WGA fluorescence at z = 2 μm): 0.7 | mi/mcontrol (polysaccharides) eq 5 ([1]; integrated WGA fluorescence over total biofilm): 0.5 | ρi/ρcontrol (polysaccharides) eq 6 ([1]; integrated WGA fluorescence over zz divided by biofilm height): 0.8 | biofilm biomass reduction ([2]; 24 h-preformed biofilms, 4 h treatment, crystal violet, relative to untreated biofilm): approximately 30% | mi/mcontrol (global) eq 7 ([2]; fold variation relative to untreated biofilm, fraction of crystal violet absorbance retained): 0.7 | ρi/ρcontrol (global) eq 8 ([2]; fold variation relative to untreated biofilm, from crystal violet data and biofilm volume, for both agents fi assumed as for α-amylase alone): 1.2 | effect on biofilm biomass [3]: no significant changes | membrane damage, TO-PRO-3 iodide staining [4]: increase of red-stained bacteria
